Series [1] relates to Staphylococcus aureus. Kind of series: Antibacterial activity against NDM-1 gene-resistant Staphylococcus aureus assessed as inhibition of bacterial growth incubated for 18 hrs by CLSI guidelines based assay. The format is functional.
Series [2] in a line: Cytotoxicity against human Gastric mucosal cells measured after 24 hrs by CCK-8 assay. Type of series: toxicity, cell-based, Gastric mucosal cell.
Series [3] is described as follows: Hemolytic activity in sheep red blood cells measured after 1 hr incubation. Type of series: toxicity, cell-based, Ovis aries, Erythrocyte.
In series [4] the test system is Escherichia coli. As to the kind of experiment: Antimicrobial activity against Escherichia coli assessed as inhibition of growth incubated for 18 hrs by CLSI guidelines based assay. The format is functional.
The subject of series [5] is Stenotrophomonas maltophilia. As to the kind of experiment: Antimicrobial activity against Stenotrophomonas maltophilia assessed as inhibition of growth incubated for 18 hrs by CLSI guidelines based assay. Type of series: functional.
For series [6], the system named is Staphylococcus aureus. Kind of series: Antimicrobial activity against Staphylococcus aureus assessed as inhibition of growth incubated for 18 hrs by CLSI guidelines based assay. Type of series: functional.
The nature of series [7]: Selectivity index, ratio of HC50 for sheep red blood cells to MIC for Staphylococcus aureus. Type of series: toxicity, cell-based, RBC. Conditions: read-out: Selectivity Index.
Series [8] has as its system Enterococcus faecalis. As to the kind of experiment: Antimicrobial activity against Enterococcus faecalis assessed as inhibition of growth incubated for 18 hrs by CLSI guidelines based assay. Type of series: functional.
The test system of series [9] is Staphylococcus aureus. As to the kind of experiment: Resistance development in Staphylococcus aureus assessed as increase in MIC measured after 20 passages of continues culture. The format is functional.
Series [10] deals with Staphylococcus aureus. Kind of series: Antibacterial activity against methicillin-resistant Staphylococcus aureus assessed as inhibition of bacterial growth incubated for 18 hrs by CLSI guidelines based assay. Type of series: functional.
Series [11] is described as follows: Hemolytic activity in red blood cells (unknown origin). The format is toxicity, cell-based, Erythrocyte.
Series [12] can be described thus: Selectivity index, ratio of HC50 for RBC (unknown origin) to MIC for Staphylococcus aureus. Type of series: toxicity, cell-based. Particulars: red blood cells; read-out: Selectivity Index.
In series [13] the test system is Staphylococcus aureus. Kind of series: Antibacterial activity against Staphylococcus aureus. The format is functional.
Series [14] in a line: Selectivity index, ratio of HC50 for human erythrocytes to MIC for methicillin-resistant Staphylococcus aureus. The format is toxicity, cell-based, RBC. Conditions: read-out: Selectivity Index.
Series [15] has as its system Staphylococcus aureus. As to the kind of experiment: Antibacterial activity against methicillin-resistant Staphylococcus aureus. Type of series: functional.
The subject of series [16] is Cell membrane. Kind of series: Induction of Cytoplasmic membrane depolarization in Staphylococcus aureus assessed as increase in fluorescence intensity measured at 6 times of MIC measured after 4 hrs by DiSC3(5) dye-based fluorescence assay. The format is subcellular.

Activity calls are given as the source filed them. The rule behind the calls is not given here. *1 amine or outer side, *2 acyl side, *3 side chain or, on linkers, in order; H or OH if unused. Where a SMILES comes first, the peptide text is derived from it. Bridges are numbered along the chain shown (N, C = ends). Side-chain parts run from the residue outwards. [ ]: non-standard residue; d: D form. The star is where a group is joined. X1 = C[C@@H](O)[C@H](CN([C@@H](CCN)C(=O)[*:2])[*:1])N[*:3]; Octanoyl(6-Me) = CCC(C)CCCCC(=O)*; Dab = NCC[C@H](N)C(=O)O

Usually MIC90 stands for the lowest concentration that inhibits either 90% of growth or 90% of the strains tested, depending on the study. One may read the CC50 as the concentration at which the toxic effect on the cells reaches its halfway point. What is called HC50 is the concentration that lyses half of the red blood cells. Read a low HC50 as stronger haemolysis. One may read the MIC as the lowest concentration found to suppress growth.

Turning to `CO[C@H]1/C=C/O[C@@]2(C)Oc3c(C)c(O)c4c(O)c(c(/C=N/N5CCN(C)CC5)c(O)c4c3C2=O)NC(=O)/C(C)=C\C=C\[C@H](C)[C@H](O)[C@@H](C)[C@@H](O)[C@@H](C)[C@H](OC(C)=O)[C@@H]1C` [RIFAMPIN], the MIC90 in series [1] is greater than 32 µg/mL.

Turning to `CCCCCCCC[N+](C)(C)CCCOc1cc(OCCC[N+](C)(C)CCCCCCCC)cc(OCCC[N+](C)(C)CCCCCCCC)c1.[Br-].[Br-].[Br-]`, the CC50 at 24 h in series [2] is less than 30 µg/mL. Also, in series [3], the concentration for 50% haemolysis (HC50) at 1 h was greater than 1280 µg/mL. Further, the MIC in [4] came out at 4 µg/mL; in series [5], 4 µg/mL; in [6], 2 µg/mL; in series [8], 1 µg/mL. Moreover, the selectivity ratio in series [7] is greater than 640.

As for `CNC(C)[C@@H]1CC[C@@H](N)[C@@H](O[C@H]2[C@H](O)[C@@H](O[C@H]3OC[C@](C)(O)[C@H](NC)[C@H]3O)[C@H](N)C[C@@H]2N)O1.CN[C@@H]1[C@@H](O)[C@@H](O[C@@H]2[C@@H](O)[C@H](O[C@H]3O[C@H](C(C)N)CC[C@H]3N)[C@@H](N)C[C@H]2N)OC[C@]1(C)O.CN[C@@H]1[C@@H](O)[C@@H](O[C@@H]2[C@@H](O)[C@H](O[C@H]3O[C@H](CN)CC[C@H]3N)[C@@H](N)C[C@H]2N)OC[C@]1(C)O` (stereo partly specified), the MIC90 in series [1] is greater than 32 µg/mL.

With `CC[C@H]1OC(=O)[C@H](C)[C@@H](O[C@H]2C[C@@](C)(OC)[C@@H](O)[C@H](C)O2)[C@H](C)[C@@H](O[C@@H]2O[C@H](C)C[C@H](N(C)C)[C@H]2O)[C@](C)(O)C[C@@H](C)C(=O)[C@H](C)[C@@H](O)[C@]1(C)O` [ERYTHROMYCIN], the MIC90 in series [1] was greater than 32 µg/mL.

`CCCCCCCC[N+](C)(C)CCCCCOc1cc(OCCCCC[N+](C)(C)CCCCCCCC)cc(OCCCCC[N+](C)(C)CCCCCCCC)c1.[Br-].[Br-].[Br-]` yielded a 50% cytotoxic concentration (CC50) at 24 h in [2] of less than 30 µg/mL. The compound also yielded an HC50 at 1 h in series [3] of 711 µg/mL. For the same compound, the minimal inhibitory concentration (MIC) in series [4] turned out to be 4 µg/mL; in series [5] it was 2 µg/mL; in [6], 0.5 µg/mL; in [8] it was 2 µg/mL. Besides, the selectivity ratio in series [7] is 1420.

In [2], `CCCCCC[N+](C)(C)CCCCCOc1cc(OCCCCC[N+](C)(C)CCCCCC)cc(OCCCCC[N+](C)(C)CCCCCC)c1.[Br-].[Br-].[Br-]` returned a CC50 at 24 h of less than 30 µg/mL. The HC50 at 1 h in series [3] is greater than 1280 µg/mL. The MIC was 8 µg/mL in series [4], 4 µg/mL in [5], 1 µg/mL in series [6] and 2 µg/mL in series [8]. Moreover, the selectivity ratio in [7] is greater than 1280.

Compound `C[N+](C)(CCCCCOc1cc(OCCCCC[N+](C)(C)CCCCc2ccccc2)cc(OCCCCC[N+](C)(C)CCCCc2ccccc2)c1)CCCCc1ccccc1.[Br-].[Br-].[Br-]` returned a CC50 at 24 h in series [2] of less than 30 µg/mL. The compound further registered an HC50 at 1 h in series [3] greater than 1280 µg/mL. Further, the MIC was found to be 2 µg/mL in series [4], 2 µg/mL in series [5], 1 µg/mL in [6] and 2 µg/mL in series [8]. For the same compound, in series [7], the selectivity ratio is greater than 1280.

Consider `CCn1cc(C(=O)O)c(=O)c2cc(F)c(N3CCNCC3)cc21` [NORFLOXACIN], for which the MIC in [9] was determined as 4 µg/mL.

Take `C[C@H]1c2cccc(O)c2C(=O)C2=C(O)[C@]3(O)C(=O)C(C(N)=O)=C(O)[C@@H](N(C)C)[C@@H]3[C@@H](O)[C@@H]21` [DOXYCYCLINE ANHYDROUS]: the results for the MIC90 in series [1] and in series [10] were greater than 32 µg/mL and no less than 16 µg/mL, respectively.

For `CCCCCCCNC(=O)C[N+](C)(C)CCCCCCCCCCCC[N+](C)(C)CC(=O)NCCCCCCC.[Br-].[Br-]`, the CC50 at 24 h in [2] stood at 38.1 µg/mL. Besides, the MIC in series [4] is 0.062 µg/mL; in [13], 0.5 µg/mL. In addition, the HC50 in [11] amounted to 1220 µg/mL. In [12], the selectivity ratio is 2440.

Take `CC(C)CCCCC(=O)N[C@@H](CCN)C(=O)N[C@@H](CN[C@@H](CCN)C(=O)N[C@H]1CCNC(=O)[C@H]([C@@H](C)O)NC(=O)[C@H](CCN)NC(=O)[C@H](CCN)NC(=O)[C@H](CC(C)C)NC(=O)[C@@H](CC(C)C)NC(=O)[C@H](CCN)NC1=O)[C@@H](C)O.CCC(C)CCCCC(=O)N[C@@H](CCN)C(=O)N[C@@H](CN[C@@H](CCN)C(=O)N[C@H]1CCNC(=O)[C@H]([C@@H](C)O)NC(=O)[C@H](CCN)NC(=O)[C@H](CCN)NC(=O)[C@H](CC(C)C)NC(=O)[C@@H](CC(C)C)NC(=O)[C@H](CCN)NC1=O)[C@@H](C)O` (stereo partly drawn) (H-[X1]([Dab-Octanoyl(6-Me)])[Dab][Dab][dL]L[Dab][Dab]T; lactam 2-C): the minimum inhibitory concentration (MIC) in series [9] amounted to 4 µg/mL.

Consider `C[N+](C)(CCCCCOc1ccccc1)CCCCCOc1cc(OCCCCC[N+](C)(C)CCCCCOc2ccccc2)cc(OCCCCC[N+](C)(C)CCCCCOc2ccccc2)c1.[Br-].[Br-].[Br-]`, for which, in [2], the CC50 at 24 h was less than 30 µg/mL. Moreover, the HC50 at 1 h in series [3] is greater than 1280 µg/mL. The MIC was 1 µg/mL in series [4], 2 µg/mL in series [5], 1 µg/mL in series [6] and 2 µg/mL in series [8]. Further, the selectivity ratio in series [7] is greater than 1280.

`CCCCCCN(Cc1ccc(-c2ccc(CN(CCCCCC)C(=O)[C@@H](N)CCCCN)cc2)cc1)C(=O)[C@@H](N)CCCCN.O=C(O)C(F)(F)F.O=C(O)C(F)(F)F.O=C(O)C(F)(F)F.O=C(O)C(F)(F)F`: the selectivity ratio in series [14] is 74.2. In series [15], the MIC was found to be 3.1 µg/mL.

For the compound `CC[C@H](C)[C@H](NC(=O)CN)C(=O)NCC(=O)N[C@@H](C)C(=O)N[C@H](C(=O)N[C@@H](CC(C)C)C(=O)N[C@@H](CCCCN)C(=O)N[C@H](C(=O)N[C@@H](CC(C)C)C(=O)N[C@H](C(=O)N[C@H](C(=O)NCC(=O)N[C@@H](CC(C)C)C(=O)N1CCC[C@H]1C(=O)N[C@@H](C)C(=O)N[C@@H](CC(C)C)C(=O)N[C@H](C(=O)N[C@@H](CO)C(=O)N[C@@H](Cc1c[nH]c2ccccc12)C(=O)N[C@H](C(=O)N[C@@H](CCCCN)C(=O)N[C@@H](CCCNC(=N)N)C(=O)N[C@@H](CCCCN)C(=O)N[C@@H](CCCNC(=N)N)C(=O)N[C@@H](CCC(N)=O)C(=O)N[C@@H](CCC(N)=O)C(N)=O)[C@@H](C)CC)[C@@H](C)CC)[C@@H](C)O)[C@@H](C)O)C(C)C)C(C)C`, the result in series [16] was Active.

The compound `CCCCCCNC(=O)C[N+](C)(C)CCCCCCCCCCCC[N+](C)(C)CC(=O)NCCCCCC.[Br-].[Br-]` displayed a CC50 at 24 h in [2] of 19.1 µg/mL. Also, the HC50 at 1 h in series [3] was greater than 1280 µg/mL. This compound also yielded an HC50 in series [11] of 805 µg/mL. Also, the selectivity ratio is 805 in series [12] and greater than 1280 in [7]. Moreover, the MIC in series [6] and in series [13] was 1 µg/mL in each case.

In series [2], `C[N+](C)(CCCCCOc1cc(OCCCCC[N+](C)(C)CCCCOc2ccccc2)cc(OCCCCC[N+](C)(C)CCCCOc2ccccc2)c1)CCCCOc1ccccc1.[Br-].[Br-].[Br-]` yielded a CC50 at 24 h of less than 30 µg/mL. The compound also came in with an HC50 at 1 h in [3] greater than 1280 µg/mL. Besides, the MIC in [4] came out at 2 µg/mL; in [5] it was 4 µg/mL; in series [6], 1 µg/mL; in [8], 2 µg/mL. In addition, the selectivity ratio in series [7] was greater than 1280.

On to `C[N+](C)(CCCCCOc1cc(OCCCCC[N+](C)(C)CCCOc2ccccc2)cc(OCCCCC[N+](C)(C)CCCOc2ccccc2)c1)CCCOc1ccccc1.[Br-].[Br-].[Br-]`, for which the CC50 at 24 h in [2] was less than 30 µg/mL. This compound yielded a 50% haemolytic concentration (HC50) at 1 h in [3] greater than 1280 µg/mL. Moreover, the MIC was found to be 2 µg/mL in [4], 2 µg/mL in series [5], 1 µg/mL in [6] and 1 µg/mL in series [8]. Further, in series [7], the selectivity ratio is greater than 1280.

The values are drawn from ChEMBL document CHEMBL6071176, “Development of Phloroglucinol-Linked Tris-Quaternary Ammonium Salt Antimicrobial Peptide Mimics with Low Cytotoxicity and Broad-Spectrum Antibacterial Activity” (J Med Chem, 2024).
